Source: patent publication US12268674B2, “Mi-2β inhibitor as an immunotherapy agent” (BioVentures, LLC, priority 2021, dated 2025)

Tests used:
Assay in all cases: ATPase profile (ATP acyl phosphate probe)
Type in all cases: binding
ASNA1 = target: T1, ASNA1 (Homo sapiens, UniProt O43681)
T1 construct: to get the native cell lysate; host or cells: A375 cell lysate

UPF1 = target: T2, UPF1 (Homo sapiens, UniProt Q92900)
T2 construct: to get the native cell lysate; endogenous in cells; host or cells: A375 cell lysate
T2 sequence (Q92900 whole entry): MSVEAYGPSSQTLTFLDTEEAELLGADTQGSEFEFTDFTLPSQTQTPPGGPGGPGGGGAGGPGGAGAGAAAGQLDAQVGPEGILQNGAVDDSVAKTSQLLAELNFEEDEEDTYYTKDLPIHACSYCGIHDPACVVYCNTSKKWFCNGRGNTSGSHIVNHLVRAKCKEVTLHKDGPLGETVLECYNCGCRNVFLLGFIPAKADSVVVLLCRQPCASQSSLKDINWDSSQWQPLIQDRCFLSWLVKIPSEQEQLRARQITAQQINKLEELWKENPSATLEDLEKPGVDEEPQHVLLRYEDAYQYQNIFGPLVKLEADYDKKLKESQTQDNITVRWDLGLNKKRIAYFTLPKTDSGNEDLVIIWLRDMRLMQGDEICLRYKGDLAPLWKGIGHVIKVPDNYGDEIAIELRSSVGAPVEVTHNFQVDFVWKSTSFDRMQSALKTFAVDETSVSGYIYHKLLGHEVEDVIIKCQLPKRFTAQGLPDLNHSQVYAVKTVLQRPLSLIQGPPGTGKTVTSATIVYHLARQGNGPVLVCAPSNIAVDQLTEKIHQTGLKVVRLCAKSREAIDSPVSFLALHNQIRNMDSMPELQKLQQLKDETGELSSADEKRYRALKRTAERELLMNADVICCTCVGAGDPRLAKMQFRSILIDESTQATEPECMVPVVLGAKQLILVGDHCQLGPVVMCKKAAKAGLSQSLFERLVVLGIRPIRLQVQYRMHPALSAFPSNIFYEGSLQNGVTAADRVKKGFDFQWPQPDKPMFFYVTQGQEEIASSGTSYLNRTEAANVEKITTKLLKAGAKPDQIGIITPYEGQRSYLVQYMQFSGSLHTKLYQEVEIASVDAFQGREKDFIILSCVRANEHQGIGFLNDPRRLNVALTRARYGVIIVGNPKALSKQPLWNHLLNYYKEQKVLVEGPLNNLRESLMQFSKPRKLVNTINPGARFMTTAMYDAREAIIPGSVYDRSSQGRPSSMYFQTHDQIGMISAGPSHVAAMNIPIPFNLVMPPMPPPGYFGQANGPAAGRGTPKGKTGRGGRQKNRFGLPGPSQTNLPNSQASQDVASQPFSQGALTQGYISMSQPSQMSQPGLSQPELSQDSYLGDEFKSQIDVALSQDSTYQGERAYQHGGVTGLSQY

HPRT1 = target: T3, HPRT1 (Homo sapiens, UniProt P00492); conditions: HPRT1, SEQ ID NO: 93, ATP BS
T3 construct: to get the native cell lysate; endogenous in cells; host or cells: A375
T3 sequence (P00492 whole entry): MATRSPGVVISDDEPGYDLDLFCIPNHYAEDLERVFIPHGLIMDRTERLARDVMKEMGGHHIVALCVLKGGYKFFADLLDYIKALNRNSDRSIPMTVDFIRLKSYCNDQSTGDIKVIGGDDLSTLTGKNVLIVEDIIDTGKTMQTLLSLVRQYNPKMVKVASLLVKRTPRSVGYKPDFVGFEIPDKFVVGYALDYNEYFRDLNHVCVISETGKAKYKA

MMAB = target: T4, MMAB (Homo sapiens, UniProt Q96EY8); conditions: SEQ ID NO: 124, ATP BS
T4 construct: to get the native cell lysate; endogenous in cells; host or cells: A375
T4 sequence (Q96EY8 33-250): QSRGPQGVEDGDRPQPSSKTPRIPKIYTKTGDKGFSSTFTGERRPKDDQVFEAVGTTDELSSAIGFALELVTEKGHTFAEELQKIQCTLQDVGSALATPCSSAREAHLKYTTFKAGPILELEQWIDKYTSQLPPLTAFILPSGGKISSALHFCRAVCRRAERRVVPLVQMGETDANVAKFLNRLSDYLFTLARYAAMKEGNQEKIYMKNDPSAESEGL

DHX36 = target: T5, DHX36 (Homo sapiens, UniProt Q9H2U1); conditions: DHX36, SEQ ID NO: 73, ATP BS
T5 construct: endogenous in cells; host or cells: A375 cell lysate

QARS = target: T6, QARS (Homo sapiens, UniProt P47897); conditions: SEQ ID NO: 180, ATP BS
T6 construct: to get the native cell lysate; endogenous in cells; host or cells: A375 cell lysate

TTLL12 = target: T7, TTLL12 (Homo sapiens, UniProt Q14166)
T7 construct: to get the native cell lysate; endogenous in cells; host or cells: A375 cell lysate
T7 sequence (Q14166 whole entry): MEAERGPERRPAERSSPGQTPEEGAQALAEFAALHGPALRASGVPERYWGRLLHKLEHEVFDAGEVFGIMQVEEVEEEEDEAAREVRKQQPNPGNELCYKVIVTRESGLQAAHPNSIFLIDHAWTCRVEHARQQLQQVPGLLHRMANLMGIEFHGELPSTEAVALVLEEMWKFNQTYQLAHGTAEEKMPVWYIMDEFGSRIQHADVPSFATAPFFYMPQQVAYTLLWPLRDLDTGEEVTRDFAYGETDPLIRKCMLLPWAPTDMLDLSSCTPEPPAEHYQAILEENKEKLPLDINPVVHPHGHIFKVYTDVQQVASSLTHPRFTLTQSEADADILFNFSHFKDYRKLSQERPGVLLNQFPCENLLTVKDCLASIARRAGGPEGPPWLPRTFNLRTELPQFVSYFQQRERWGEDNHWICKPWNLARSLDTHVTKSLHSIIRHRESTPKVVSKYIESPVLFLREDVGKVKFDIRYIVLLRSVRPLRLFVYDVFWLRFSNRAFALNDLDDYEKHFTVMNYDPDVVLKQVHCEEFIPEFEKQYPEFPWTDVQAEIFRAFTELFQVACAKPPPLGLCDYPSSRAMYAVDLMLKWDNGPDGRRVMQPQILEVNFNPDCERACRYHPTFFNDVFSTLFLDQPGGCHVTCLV

NARS = target: T8, NARS (Homo sapiens, UniProt O43776); conditions: SEQ ID NO: 131, ATP BS
T8 construct: to get the native cell lysate; endogenous in cells; host or cells: A375

AK7 = target: T9, AK7 (Homo sapiens, UniProt Q96M32); conditions: AK7, SEQ ID NO: 37, ATP BS
T9 construct: to get the native cell lysate; host or cells: A375 cell lysate
T9 sequence (Q96M32 whole entry): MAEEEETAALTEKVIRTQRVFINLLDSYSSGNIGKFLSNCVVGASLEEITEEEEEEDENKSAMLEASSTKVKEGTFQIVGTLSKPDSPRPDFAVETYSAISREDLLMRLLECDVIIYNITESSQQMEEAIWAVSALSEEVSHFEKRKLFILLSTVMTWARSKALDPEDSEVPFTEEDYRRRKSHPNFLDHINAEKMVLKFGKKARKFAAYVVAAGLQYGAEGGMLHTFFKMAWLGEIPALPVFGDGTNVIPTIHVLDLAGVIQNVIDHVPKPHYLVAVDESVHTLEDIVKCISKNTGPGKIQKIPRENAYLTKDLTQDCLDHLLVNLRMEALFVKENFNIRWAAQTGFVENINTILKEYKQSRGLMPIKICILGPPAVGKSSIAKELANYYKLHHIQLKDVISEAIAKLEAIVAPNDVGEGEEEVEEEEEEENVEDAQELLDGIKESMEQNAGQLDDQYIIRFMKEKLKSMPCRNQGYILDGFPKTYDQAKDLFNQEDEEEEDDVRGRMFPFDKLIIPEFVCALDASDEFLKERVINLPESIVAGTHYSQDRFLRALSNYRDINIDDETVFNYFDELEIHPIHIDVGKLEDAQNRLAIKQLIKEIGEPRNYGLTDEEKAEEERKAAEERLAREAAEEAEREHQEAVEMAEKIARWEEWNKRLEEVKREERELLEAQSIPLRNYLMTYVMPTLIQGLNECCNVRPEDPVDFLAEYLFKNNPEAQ

ABCB10 = target: T10, ABCB10 (Homo sapiens, UniProt Q9NRK6); conditions: ABCB10, SEQ ID NO: 2, ATP BS
T10 construct: to get the native cell lysate; host or cells: A375 cell lysate
T10 sequence (Q9NRK6 106-738): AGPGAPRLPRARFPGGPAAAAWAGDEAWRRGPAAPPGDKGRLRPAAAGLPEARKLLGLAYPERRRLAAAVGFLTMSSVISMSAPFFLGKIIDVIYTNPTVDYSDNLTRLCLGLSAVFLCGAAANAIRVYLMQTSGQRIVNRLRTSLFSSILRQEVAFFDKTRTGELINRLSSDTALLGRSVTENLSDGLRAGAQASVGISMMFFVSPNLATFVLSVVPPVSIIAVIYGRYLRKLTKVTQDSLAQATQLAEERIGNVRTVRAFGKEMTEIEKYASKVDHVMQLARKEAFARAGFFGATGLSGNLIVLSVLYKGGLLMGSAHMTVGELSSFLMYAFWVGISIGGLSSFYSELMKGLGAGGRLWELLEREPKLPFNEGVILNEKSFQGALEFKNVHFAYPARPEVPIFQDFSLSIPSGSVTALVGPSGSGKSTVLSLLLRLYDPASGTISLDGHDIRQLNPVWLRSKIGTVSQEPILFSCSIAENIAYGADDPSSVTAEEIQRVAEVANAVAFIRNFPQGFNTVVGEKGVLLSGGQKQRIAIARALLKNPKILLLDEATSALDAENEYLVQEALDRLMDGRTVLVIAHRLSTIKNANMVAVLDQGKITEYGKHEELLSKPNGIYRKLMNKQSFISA

LONP1 = target: T11, LONP1 (Homo sapiens, UniProt P36776); conditions: LONP1, SEQ ID NO: 115, labeling site Other
T11 construct: to get the native cell lysate; endogenous in cells; host or cells: A375
T11 sequence (P36776 68-959): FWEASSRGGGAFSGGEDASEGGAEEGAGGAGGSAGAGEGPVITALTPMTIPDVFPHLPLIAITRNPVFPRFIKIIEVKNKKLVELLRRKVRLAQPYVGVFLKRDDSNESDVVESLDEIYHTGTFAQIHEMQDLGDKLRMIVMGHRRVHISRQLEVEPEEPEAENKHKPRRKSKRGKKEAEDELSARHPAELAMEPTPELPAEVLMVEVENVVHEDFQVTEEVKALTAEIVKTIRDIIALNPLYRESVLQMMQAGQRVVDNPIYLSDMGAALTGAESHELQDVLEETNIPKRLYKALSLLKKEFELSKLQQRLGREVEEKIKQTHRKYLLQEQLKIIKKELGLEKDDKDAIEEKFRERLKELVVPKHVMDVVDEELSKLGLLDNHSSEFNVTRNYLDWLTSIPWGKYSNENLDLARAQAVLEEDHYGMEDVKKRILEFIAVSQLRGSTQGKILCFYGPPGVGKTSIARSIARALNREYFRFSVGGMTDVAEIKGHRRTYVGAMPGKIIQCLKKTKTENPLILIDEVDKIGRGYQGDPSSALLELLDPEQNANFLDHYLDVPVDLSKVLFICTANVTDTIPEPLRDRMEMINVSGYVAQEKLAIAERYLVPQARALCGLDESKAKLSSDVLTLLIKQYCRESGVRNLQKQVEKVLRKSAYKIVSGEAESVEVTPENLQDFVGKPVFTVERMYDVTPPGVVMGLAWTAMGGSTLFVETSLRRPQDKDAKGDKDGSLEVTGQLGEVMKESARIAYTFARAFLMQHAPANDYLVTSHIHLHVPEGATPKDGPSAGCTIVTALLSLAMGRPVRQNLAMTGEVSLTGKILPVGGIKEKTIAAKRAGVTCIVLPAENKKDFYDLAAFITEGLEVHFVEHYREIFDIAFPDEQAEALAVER

T1 sequence (O43681 whole entry): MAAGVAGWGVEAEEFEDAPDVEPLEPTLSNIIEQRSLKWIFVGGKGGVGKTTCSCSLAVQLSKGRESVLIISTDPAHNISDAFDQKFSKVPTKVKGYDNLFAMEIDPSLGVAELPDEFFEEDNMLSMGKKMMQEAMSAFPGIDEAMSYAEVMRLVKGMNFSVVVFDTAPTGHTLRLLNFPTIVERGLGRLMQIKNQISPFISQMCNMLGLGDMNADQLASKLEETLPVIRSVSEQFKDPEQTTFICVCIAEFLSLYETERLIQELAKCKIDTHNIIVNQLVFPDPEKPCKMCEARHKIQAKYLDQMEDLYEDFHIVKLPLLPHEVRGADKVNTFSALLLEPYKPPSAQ

In the case of `Cn1c(=O)[nH]c2ccc(-c3cccc(C(=O)NC4CCn5ccnc5C4)c3)cc21` (centres unmarked) [Z36-MP5, 3-(3-methyl-2-oxo-2,3-dihydro-1H-benzo[d]imidazol-5-yl)-N-(5,6,7,8-tetrahydroimidazo[1,2-a]pyridin-7-yl)benzamide], the “Inhibition (%) by 1 μM Z36-MP5” value (ASNA1; ASNA1, SEQ ID NO: 41, ATP BS) is reported as −3.04%, the “Inhibition (%) by 1 μM Z36-MP5” value (ASNA1; ASNA1, SEQ ID NO: 42, ATP BS) is reported as 0.73% and the “Inhibition (%) by 1 μM Z36-MP5” value (UPF1; UPF1, SEQ ID NO: 223, ATP BS) is reported as −1.93%. For the same compound, the “Inhibition (%) by 1 μM Z36-MP5” value (UPF1; UPF1, SEQ ID NO: 224, ATP BS) was −3.51%, the “Inhibition (%) by 1 μM Z36-MP5” value (HPRT1) was 12.92% and the “Inhibition (%) by 1 μM Z36-MP5” value (MMAB) was −4.08%. For the same compound, the “Inhibition (%) by 1 μM Z36-MP5” value (DHX36) was −20.12%, the “Inhibition (%) by 1 μM Z36-MP5” value (QARS) was −7.77% and the “Inhibition (%) by 1 μM Z36-MP5” value (TTLL12; TTLL12, SEQ ID NO: 215, ATP BS) was −5.29%. For the same compound, the “Inhibition (%) by 1 μM Z36-MP5” value (TTLL12; TTLL12, SEQ ID NO: 216, ATP BS) was −17.65%, the “Inhibition (%) by 1 μM Z36-MP5” value (NARS) was 2.36% and the “Inhibition (%) by 1 μM Z36-MP5” value (AK7) was 13.86%. The “Inhibition (%) by 1 μM Z36-MP5” value (ABCB10) was −6.14% and the “Inhibition (%) by 1 μM Z36-MP5” value (LONP1) was 1.81%.
